In the experiment the test system is M. tuberculosis wild type plus biotin, growth inhibition. Put plainly: mtb wild type strain growth inhibition with biotin, cell based, bioa project (AID 743071). Conditions: for IC90: measured here: Mtb growth IC90.

The source made the active and inactive calls. The rule behind the calls is not given here. Where only a bound is given, the exact number is not on record here.

As for `CC(=O)c1ccc(N2CCN(C(=O)c3ccc(Br)cc3)CC2)c(F)c1`, the IC50 is > 50 µM (inactive) and the IC90 is more than 50 µM.
For `COc1cccc(NC(=O)N2CCN(c3ccccc3)CC2)c1`, the IC50 is 50 µM and the IC90 was more than 50 µM.
Consider `CC(=O)c1ccc(N2CCN(C(=O)c3ccc4c(c3)OCO4)CC2)cc1`, for which the IC50 was > 50 µM (inactive) and the concentration for an effect of 90% (IC90) is more than 50 µM.
`O=C(Nc1ccc(Cl)cc1)c1cc2nc(C3CC3)cc(C(F)(F)F)n2n1`: the IC50 was > 50 µM (inactive) and the concentration for an effect of 90% (IC90) was more than 50 µM.
`CCN(CC)c1ccc2cc(C(=O)c3cccs3)c(=O)oc2c1`: the IC50 was 5.5 µM and the IC90 is more than 50 µM.
Consider `CC(=O)c1ccc(N2CCN(C(=O)c3ccc4ncsc4c3)CC2)cc1`, for which the IC50 was > 50 µM (inactive) and the 90% effect concentration (IC90) is more than 50 µM.
Taken in the same sequence, the figures for `O=C(c1ccc2c(c1)OCO2)N1CCN(c2ccc(Cl)cc2)CC1` were 12.7 µM and 42.7 µM.
On to `Cc1cccc(/C=C(\CCC(=O)O)c2nc3ccccc3s2)c1`, for which the half-inhibitory concentration (IC50) is 3.1 µM and the 90% effect concentration (IC90) came out at 11.6 µM.
Regarding `O=C(Nc1ccc2snnc2c1)N1CCOCC1`, the IC50 is > 50 µM (inactive) and the IC90 was more than 50 µM.
`CC(=O)c1ccc(N2CCN(C(=O)c3ccc(Cl)cc3)CC2)cc1`: the IC50 is > 50 µM (inactive) and the IC90 was more than 50 µM.
Regarding `Cc1ccc(NC(=O)N2CCN(c3ccccc3)CC2)cc1`, the IC50 was 8 µM and the concentration for an effect of 90% (IC90) is more than 50 µM.
In the case of `CC(=O)c1ccc(N2CCN(C(=O)c3cccc(Cl)c3)CC2)cc1`, the IC50 was > 50 µM (inactive) and the IC90 was more than 50 µM.
In the case of `COc1ccc(N2CCN(C(=O)c3ccc4c(c3)OCO4)CC2)cc1`, the IC50 is 10.1 µM and the 90% effect concentration (IC90) is more than 50 µM.
Regarding `COc1ccc(-c2cc(C(F)(F)F)n3nc(C(=O)Nc4cccnc4)cc3n2)cc1`, the IC50 is > 50 µM (inactive) and the concentration for an effect of 90% (IC90) was more than 50 µM.
`CC(=O)c1ccc(N2CCN(C(=O)c3ccccc3)CC2)cc1`: the IC50 was > 50 µM (inactive) and the IC90 was more than 50 µM.
As for `Cc1ccc(/C=C(\CCC(=O)O)c2nc3ccccc3s2)cc1`, the IC50 was 2.2 µM and the concentration for an effect of 90% (IC90) was found to be 5.6 µM.
For `O=C(Nc1cccnc1)c1cc2nc(-c3cccs3)cc(C(F)(F)F)n2n1`, the IC50 was > 50 µM (inactive) and the IC90 was more than 50 µM.
For `CC(=O)c1ccc(N2CCN(C(=O)c3cccnc3)CC2)cc1`, the IC50 is > 50 µM (inactive) and the IC90 is more than 50 µM.
With `CC(=O)c1ccc(N2CCN(C(=O)c3ccc(F)cc3)CC2)cc1`, the IC50 is > 50 µM (inactive) and the concentration for an effect of 90% (IC90) was more than 50 µM.
For `O=C(COc1ccc2ccc(=O)oc2c1)N1CCN(c2ccc(F)cc2)CC1`, the IC50 was > 50 µM (inactive) and the IC90 is more than 50 µM.
Take `O=C(Nc1cccc(F)c1)N1CCN(c2ccccc2)CC1`: the IC50 was 7.9 µM and the IC90 is more than 50 µM.
Turning to `O=C(Nc1ccc2snnc2c1)N1CCCCC1`, the IC50 was 50 µM and the IC90 is more than 50 µM.
Taken in the same sequence, the figures for `CC(C)(C)c1ccc(C(=O)N2CCN(c3ccc4c(c3)OCO4)CC2)cc1` were 15 µM and more than 50 µM.
Take `CC(=O)c1ccc(N2CCN(C(=O)c3ccc(C)cc3)CC2)cc1`: the IC50 is > 50 µM (inactive) and the IC90 is more than 50 µM.
With `CC(=O)c1ccc(N2CCN(Cc3ccc4c(c3)OCO4)CC2)cc1`, the IC50 was 50 µM and the concentration for an effect of 90% (IC90) was more than 50 µM.
Turning to `O=C(Nc1cccnc1)N1CCN(c2ccccc2)CC1`, the IC50 is > 50 µM (inactive) and the IC90 was more than 50 µM.
With `Cc1ccc(-c2cc(C(F)(F)F)n3nc(C(=O)Nc4cccnc4)cc3n2)cc1`, the IC50 is > 50 µM (inactive) and the 90% effect concentration (IC90) is more than 50 µM.
As to `COc1ccc(C(=O)N2CCN(c3ccc(C(C)=O)cc3)CC2)cc1`, the IC50 was 81.4 µM (inactive) and the IC90 is more than 50 µM.
On the same counts, the results for `COc1cccc(NC(=O)CCC2CCN(C(=O)c3ccc(C(C)=O)s3)CC2)c1` are > 50 µM (inactive) and more than 50 µM.
On to `O=C(Nc1cccnc1)c1cnn2c(C(F)F)cc(C3CC3)nc12`, for which the IC50 was > 50 µM (inactive) and the IC90 is more than 50 µM.
For `Cc1nc2ccc(NC(=O)N3CCN(c4ccccc4)CC3)cc2s1`, the IC50 is 1.9 µM and the IC90 amounted to 7.3 µM.
With `COc1cc(/C=C/C(=O)Nc2cccnc2)cc(OC)c1OC`, the IC50 is > 50 µM (inactive) and the IC90 is more than 50 µM.
As to `Cc1ccc(/C=C(\CCCC(=O)O)c2nc3ccccc3s2)cc1[N+](=O)[O-]`, the IC50 is 9.6 µM and the IC90 is more than 50 µM.
Taken in the same sequence, the figures for `Cc1nc2cc(NC(=O)N3CCN(c4ccccc4)CC3)ccc2o1` were 50 µM and more than 50 µM.
With `O=C(Nc1cccc(Cl)c1)N1CCN(c2ccccc2)CC1`, the IC50 is 5.5 µM and the IC90 is more than 50 µM.
As to `O=C(Nc1ccc2snnc2c1)N1CCN(c2ccccc2)CC1`, the IC50 is > 50 µM (inactive) and the IC90 is more than 50 µM.
As to `O=C(Nc1ccc(F)cc1)N1CCN(c2ccccc2)CC1`, the IC50 is 19.8 µM and the 90% effect concentration (IC90) is more than 50 µM.
`O=C(c1ccc2c(c1)OCO2)N1CCN(c2ccc(F)cc2)CC1`: the IC50 is 18.9 µM and the IC90 is more than 50 µM.
`O=C(c1ccc2c(c1)OCO2)N1CCN(c2ccccc2)CC1`: the concentration for half-maximal inhibition (IC50) is 22.8 µM and the IC90 is more than 50 µM.
Taken in the same sequence, the figures for `O=C(O)CC/C(=C\c1ccc([N+](=O)[O-])cc1)c1nc2ccccc2s1` were 8.2 µM and more than 50 µM.
In the case of `CC(=O)c1ccc(N2CCN(C(=O)c3ccc4c(c3)OCCO4)CC2)cc1`, the IC50 was > 50 µM (inactive) and the IC90 is more than 50 µM.
Taken in the same sequence, the figures for `CCOC(=O)N1CCN(C(=O)Nc2ccc3snnc3c2)CC1` were 50 µM and more than 50 µM.
`Cc1ccc(/C=C(\CCC(=O)O)c2nc3ccccc3s2)cc1[N+](=O)[O-]`: the IC50 was 2 µM and the 90% effect concentration (IC90) came out at 8.7 µM.
Taken in the same sequence, the figures for `Cc1cc(C)n2nc(C(=O)Nc3cccnc3)cc2n1` were > 50 µM (inactive) and more than 50 µM.
As for `O=C(Nc1cccnc1)c1cnn2c(C(F)(F)F)cc(-c3ccccc3)nc12`, the IC50 was > 50 µM (inactive) and the IC90 was more than 50 µM.
As to `O=C(Nc1ccc2[nH]ccc2c1)N1CCN(c2ccccc2)CC1`, the IC50 is 8.5 µM and the 90% effect concentration (IC90) was more than 50 µM.
As for `Cc1ccccc1/C=C(\CCC(=O)O)c1nc2ccccc2s1`, the IC50 is 8.4 µM and the IC90 came to 40.4 µM.
Taken in the same sequence, the figures for `CCc1ccc(N2CCN(C(=O)c3ccc4c(c3)OCO4)CC2)cc1` were 8.7 µM and more than 50 µM.
Taken in the same sequence, the figures for `Cc1ccc(/C=C(\CC(=O)O)c2nc3ccccc3s2)cc1[N+](=O)[O-]` were 7.2 µM and more than 50 µM.
Turning to `O=C(c1ccc2c(c1)OCO2)N1CCN(Cc2ccccc2)CC1`, the IC50 is > 50 µM (inactive) and the IC90 was more than 50 µM.
Taken in the same sequence, the figures for `COC(=O)c1c(C(=O)OC)c(-c2cccc(F)c2)n2c1CS(=O)C2` (stereo not given) were > 50 µM (inactive) and more than 50 µM.
With `COc1ccc(NC(=O)N2CCN(c3ccccc3)CC2)cc1`, the IC50 is > 50 µM (inactive) and the IC90 was more than 50 µM.
On the same counts, the results for `O=C(Nc1ccccc1)N1CCN(c2ccccc2)CC1` are 11.7 µM and more than 50 µM.
As for `O=C(Nc1ccncc1)c1cc2nc(C3CC3)cc(C(F)F)n2n1`, the IC50 is > 50 µM (inactive) and the IC90 was more than 50 µM.
For the compound `O=C(O)CC/C(=C\c1ccccc1[N+](=O)[O-])c1nc2ccccc2s1`, the IC50 was > 50 µM (inactive) and the IC90 is more than 50 µM.
As to `Cc1cc(C)n2nc(C(=O)Nc3cccnc3)nc2n1`, the IC50 was > 50 µM (inactive) and the IC90 was more than 50 µM.
As to `CCc1ccc(C(=O)N2CCN(Cc3ccc4c(c3)OCO4)CC2)cc1`, the concentration for half-maximal inhibition (IC50) was 8.8 µM and the 90% effect concentration (IC90) was more than 50 µM.
For the compound `O=C(Nc1ccc(Cl)c(-c2nc3ccccc3[nH]2)c1)c1cccnc1`, the IC50 was 6.5 µM and the IC90 is more than 50 µM.
Regarding `CC(=O)c1ccc(N2CCN(C(=O)c3cccc(F)c3)CC2)cc1`, the IC50 was > 50 µM (inactive) and the 90% effect concentration (IC90) was more than 50 µM.
Consider `COc1cccc(C(=O)N2CCN(c3ccc(C(C)=O)cc3)CC2)c1`, for which the IC50 was > 50 µM (inactive) and the IC90 is more than 50 µM.

As usually defined, the IC50 is the concentration needed to halve the response being measured. Broadly, the IC90 is the concentration needed for an effect of 90%.

Values taken from PubChem BioAssay AID743071 (Broad Institute, 2013).
